{
  "source": "paper PMC2967639",
  "about": "(Drug and alcohol dependence, 2010)",
  "key": {"LPS-induced paw edema [1]": {"system": "LPS-induced paw edema", "assay": "LPS-induced paw edema model", "format": "in vivo, mouse", "conditions": "for LPS-induced paw edema (change in paw thickness of LPS-injected paw): i.p. 1 h before, 6 and 23 h after LPS, dose-response, measured 24 h, Figure 4A; for paw thickness of the LPS-injected paw, post hoc vs vehicle: 10, 30 and 100 mg/kg CBC, 10 and 30 mg/kg THC; for paw thickness of the saline-injected (contralateral) paw: data not shown; for effect of antagonist given alone on LPS paw edema: 3 mg/kg i.p. 30 min before each vehicle injection"}, "male ICR mice": {"system": "male ICR mice", "assay": "mouse tetrad assay", "format": "in vivo"}, "CB1 receptor": {"molecular_target": "CB1 receptor", "conditions": "ref Booker et al., 2009; cited from earlier work"}, "[2]": {"assay": "blood and brain tissue concentrations of THC and CBC by GC/MS", "format": "in vivo, mouse"}, "[3]": {"conditions": "ref Hunt et al., 1980; Widman et al., 1974; cited from earlier work"}, "LPS-induced paw edema [4]": {"system": "LPS-induced paw edema", "conditions": "ref Naidu et al., under review; cited from earlier work"}, "wild type mice": {"system": "wild type mice", "conditions": "i.v., ref Smith et al., 1994; cited from earlier work"}},
  "note": "pKi: −log10 of the molar value.",
  "data": [
    {"molecule": "CCCCCc1cc(O)c2c(c1)OC(C)(CCC=C(C)C)C=C2", "note": "(centres unmarked) [CBC, cannabichromene]", "values": [
      {"measurement": "LPS-induced paw edema (change in paw thickness of LPS-injected paw)", "setting": "LPS-induced paw edema [1]", "result": "dose-related decreases"},
      {"measurement": "paw thickness of the LPS-injected paw, post hoc vs vehicle", "setting": "LPS-induced paw edema [1]; i.p.", "result": "significant decreases"},
      {"measurement": "paw thickness of the saline-injected (contralateral) paw", "setting": "LPS-induced paw edema [1]; i.p.", "result": "neither drug affected the paw thickness"},
      {"measurement": "potency in the tetrad relative to THC", "setting": "male ICR mice; i.v.", "result": "substantially less potent than THC"},
      {"measurement": "pKi", "setting": "CB1 receptor", "result": "< 5.00"},
      {"measurement": "effect of CBC on THC levels in brain", "setting": "[2]; 30 or 100 mg/kg CBC i.v. with THC 0.3 mg/kg i.v.", "result": "significantly elevated"},
      {"measurement": "CBC levels in blood with increasing doses of CBC", "setting": "[2]; CBC 3-100 mg/kg i.v., with or without THC 0.3 mg/kg, 30 min, Figure 3C", "result": "significant increases"},
      {"measurement": "CBC levels in brain with increasing doses of CBC", "setting": "[2]; CBC 3-100 mg/kg i.v., with or without THC 0.3 mg/kg, 30 min, Figure 3D", "result": "significant increases"}
    ]},
    {"molecule": "CCCCCc1cc(O)c2c(c1)OC(C)(C)[C@@H]1CCC(C)=C[C@@H]21", "note": "[THC, Δ^9-tetrahydrocannabinol]", "values": [
      {"measurement": "THC in blood bound to plasma", "setting": "[3]", "result": "About 90%"},
      {"measurement": "THC in blood bound to red blood cells", "setting": "[3]", "result": 10, "unit": "%"},
      {"measurement": "plasma THC bound to lipoproteins", "setting": "[3]", "result": "95 – 99%"},
      {"measurement": "LPS-induced paw edema (change in paw thickness of LPS-injected paw)", "setting": "LPS-induced paw edema [1]", "result": "dose-related decreases"},
      {"measurement": "paw thickness of the LPS-injected paw, post hoc vs vehicle", "setting": "LPS-induced paw edema [1]; i.p.", "result": "significant decreases"},
      {"measurement": "paw thickness of the saline-injected (contralateral) paw", "setting": "LPS-induced paw edema [1]; i.p.", "result": "neither drug affected the paw thickness"},
      {"measurement": "ED50 (95% confidence intervals), LPS-induced paw edema", "setting": "LPS-induced paw edema [1]; individual dose-response curves, i.p.", "result": "4.0 (2.7 to 5.9) mg/kg"},
      {"measurement": "activity in the tetrad at threshold dose", "setting": "male ICR mice; THC 0.3 mg/kg i.v.", "result": "inactive"},
      {"measurement": "effect of THC on CBC blood and brain levels", "setting": "[2]; THC 0.3 mg/kg i.v. 10 min after CBC 3-100 mg/kg i.v.", "result": "no effects"}
    ]},
    {"molecule": "NC(=O)c1cccc(-c2cccc(OC(=O)NC3CCCCC3)c2)c1", "note": "[URB597]", "values": [
      {"measurement": "effect on LPS induced paw edema", "setting": "LPS-induced paw edema [4]", "result": "ameliorated LPS induced paw edema"}
    ]},
    {"molecule": "Cc1c(C(=O)c2cccc3ccccc23)c2cccc3c2n1[C@H](CN1CCOCC1)CO3", "note": "[WIN55,212-2]", "values": [
      {"measurement": "effect on LPS induced paw edema", "setting": "LPS-induced paw edema [4]", "result": "ameliorated LPS induced paw edema"}
    ]},
    {"molecule": "CCCCC/C=C\\C/C=C\\C/C=C\\C/C=C\\CCCC(=O)NCCO", "note": "[anandamide]", "values": [
      {"measurement": "fold less potent in producing antinociception than hypomotility, catalepsy and hypothermia", "setting": "wild type mice", "result": "3 – 4 fold"}
    ]},
    {"molecule": "C[C@@H]1C[C@H]2[C@@H]3CCC4=CC(=O)C=C[C@]4(C)[C@@]3(F)[C@@H](O)C[C@]2(C)[C@@]1(O)C(=O)CO", "note": "[dexamethasone]", "values": [
      {"measurement": "effect on LPS induced paw edema", "setting": "LPS-induced paw edema [4]", "result": "ameliorated LPS induced paw edema"}
    ]},
    {"molecule": "Cc1c(C(=O)NN2CCCCC2)nn(-c2ccc(Cl)cc2Cl)c1-c1ccc(Cl)cc1", "note": "[rimonabant]", "values": [
      {"measurement": "effect of antagonist given alone on LPS paw edema", "setting": "LPS-induced paw edema [1]", "result": "Neither rimonabant nor SR144528 given alone affected LPS paw edema"},
      {"measurement": "antagonism of the anti-edematous effects of THC", "setting": "LPS-induced paw edema [1]; antagonist 3 mg/kg 30 min before each THC 10 mg/kg i.p. injection, Figure 4B", "result": "but not rimonabant"},
      {"measurement": "blockade of the tetrad effects of CBC", "setting": "male ICR mice; rimonabant 3 mg/kg 10 min before CBC 100 mg/kg i.v.", "result": "failed to block the pharmacological effects of CBC"},
      {"measurement": "main effect of rimonabant on the four tetrad measures", "setting": "male ICR mice; rimonabant 3 mg/kg, 10 min before vehicle or CBC 100 mg/kg", "result": "no significant main effects"}
    ]},
    {"molecule": "SR144528", "values": [
      {"measurement": "effect of antagonist given alone on LPS paw edema", "setting": "LPS-induced paw edema [1]", "result": "Neither rimonabant nor SR144528 given alone affected LPS paw edema"}
    ]}
  ]
}
